In patent publication US12648932B2, “Ergothioneine, S-methyl-ergothioneine, and uses thereof” (FUNDACIÓ INSTITUT D'INVESTIGACIÓ BIOMÈDICA DE BELLVITGE …, priority 2019, dated 2026):
Each block holds one molecule with its values, some of them ahead of it.

Columns and labels:
[1] = equivalent of 5 mg/kg·day; cited from earlier work
[2] = test system: cystinuric mice (cystine stone formation); assay: 6-month (chronic) L-Erg treatment of cystinuric mice since weaning, cystine stone onset by X-ray imaging; format: in vivo, mouse; conditions: for stone growth (rate) in the L-Erg treated group: preventive treatment
Protocol: For the chronic exposure (6-month treatment), 4-6 mice per cage were treated since weaning for 6 months. To control L-Erg dose, water intake and mice weight were monitored and L-Erg concentration in drinking water was adjusted to get 16 mg/kg·day dose every 3 days for the first month and weekly afterwards. All mice were caged in metabolic cages individually the last week of the treatment to collect urine where water intake and mice weight were monitored daily.
(§1) Isoflurane anesthetized mice were subjected to X-ray imaging for lithiasis detection and follow-up with an IVIS Lumina XR Series III (Caliper Lifescience-Vertex Techniques) following manufacturer's imaging parameters at the age indicated in the corresponding figure legends with a calibration curve of cystine stone of known weights. Stone quantification was done using Living Image Software, provided with the instrument, by manually delimiting stone area and the estimated weight was interpolated from the calibration curve.
(§2) For the growth rate analysis, a linear regression model was used when more than 2 data points where available. The slope of the regression line in the model was used as the growth rate.
(§3) During the last week of any treatment period, mice were individually housed in metabolic cages for 4 days with the first day as an adaptation period. Mice weight, water and food intake, and excreted urine were monitored daily. 24 h urine samples were collected and kept at −80° C. until further analysis with 50 μL thymol 10% in isopropanol as preservative. pH was determined with a pHmeter (cat. no. 5209, Crison), and the redox potential with an ORP electrode (cat.no. 5265, Crison) at room temperature on a micropH 2000 (Crison).
On the last day, mice were anesthetized with isfluorane and blood removed through intracardiac puncture and kidneys were harvested, weighted and stored at −80° C. until further use. Cystine stones, if present, were removed, dried, weighted and stored at RT.

[3] = L-Erg-Cys in vitro binding assay; conditions: pH=7.2 and pH=11, RT, 17 h, LC/MS-MS
Protocol: The reactivity of L-Erg with itself and with Cys was assayed in vitro at two conditions pH=7.2 in 0.2M Na2HPO4 and pH=11 in boric acid buffer (ref. 33650-1L, Fluka) at RT for 17 h. The presence of L-Erg-L-Erg and L-Erg-Cys dimers, and cystine was determined by LC/MS-MS.

[4] = test system: transulfuration pathway metabolites in kidney; assay: Intracellular content of transulfuration pathway metabolites in kidneys of chronically treated mice (UPLC-MS/MS); format: in vivo, mouse; conditions: chronically L-Erg treated vs untreated mice
Protocol: For the chronic exposure (6-month treatment), 4-6 mice per cage were treated since weaning for 6 months. To control L-Erg dose, water intake and mice weight were monitored and L-Erg concentration in drinking water was adjusted to get 16 mg/kg·day dose every 3 days for the first month and weekly afterwards. All mice were caged in metabolic cages individually the last week of the treatment to collect urine where water intake and mice weight were monitored daily. On the last day, mice were anesthetized with isfluorane and blood removed through intracardiac puncture and kidneys were harvested, weighted and stored at −80° C. until further use. Cystine stones, if present, were removed, dried, weighted and stored at RT. L-Erg and S-Met-L-Erg analysis in urine were determined as in Example 1. For the determination of transulfuration pathway metabolites concentration, frozen kidneys were grinded using a pre-cooled mortar and pestle on dry ice. Then, 100 mg of powdered kidney were homogenized in 400 μL PBS supplemented with 10 mM NEM. To induce protein precipitation, PCA at 4% was added and samples were centrifuged at 4° C. for 15 min at 10,000 rpm in a microfuge. Supernatants were transferred to a new tube and stored at −80° C. until further analysis. Intracellular content of transulfuration pathway metabolites was determined by U PLC-MS/MS (Escobar J, et al. Development of a reliable method based on ultra-performance liquid chromatography coupled to tandem mass spectrometry to measure thiol-associated oxidative stress in whole blood samples. J. Pharm. Biomed. Anal. 2016; 123: 104-112). Protein pellets were resuspended in 400 μL 1M NaOH and the supernatant used to determine total protein concentration by BCA Protein Assay Kit (ThermoScientific).

cystinuria mouse model = assay: 1-month L-Erg treatment in the drinking water (dose finding): water intake, urine pH, ORP, urine L-Erg and S-Met-L-Erg; format: in vivo; conditions: for increase of L-Erg concentration in urine: after vs before treatment
Protocol: Three different treatments were applied to mice: 1-month, 3-month to lithiasic mice (subchronic) and 6-month (chronic exposure). In all cases L-Erg was administered in the drinking water.
For the 1-month treatment, L-Erg was provided to eight 3-month old male and female mice at 15 or 60 mg/L for 4 weeks in standard cages with free access to water and food to 8 mice (4 males and 4 females).
as §3
L-Erg and S-Met-L-Erg analysis in urine were determined as in Example 1. For the determination of transulfuration pathway metabolites concentration, frozen kidneys were grinded using a pre-cooled mortar and pestle on dry ice. Then, 100 mg of powdered kidney were homogenized in 400 μL PBS supplemented with 10 mM NEM. To induce protein precipitation, PCA at 4% was added and samples were centrifuged at 4° C. for 15 min at 10,000 rpm in a microfuge. Supernatants were transferred to a new tube and stored at −80° C. until further analysis. Intracellular content of transulfuration pathway metabolites was determined by U PLC-MS/MS (Escobar J, et al. Development of a reliable method based on ultra-performance liquid chromatography coupled to tandem mass spectrometry to measure thiol-associated oxidative stress in whole blood samples. J. Pharm. Biomed. Anal. 2016; 123: 104-112). Protein pellets were resuspended in 400 μL 1M NaOH and the supernatant used to determine total protein concentration by BCA Protein Assay Kit (ThermoScientific).
First, there were determined the best working dose for treating the mice by investigating the effects of 1-month L-Erg treatment at two different concentrations in the drinking water, 15 and 60 mg/L, on water intake, and urine pH and ORP and L-Erg concentration.

[5] = test system: lithiasic mice (cystine stone growth); assay: 3-month L-Erg treatment of lithiasic mice, cystine stone growth by X-ray imaging; format: in vivo, mouse; conditions: 3 months
Protocol: For the evaluation of L-Erg effect on lithiasic mice, 15 mice (8 males and 7 females) were treated with 60 mg/L L-Erg on the drinking water and 13 mice (4 male and 9 females were left untreated as control. Mice were 10.9-26-9 weeks-old at the beginning of the treatment period with a mean age of 15.3±1.4 and 16.9±1.01 weeks of age for control and L-Erg treated, respectively. During the 3-month treatment water intake and mice weight was monitored weekly.
as §1, §2, §3

[6] = test system: lithiasic phenotype in cystinuric mice; assay: ROC curve of urine S-Met-L-Erg concentration to differentiate the lithiasic phenotype; parameters: species or system mouse; conditions: stone former vs non-stone former Slc7a9-/- mice
Protocol: Mice from each genotype were individually housed in metabolic cages for 4 days with the first day as an adaptation period. Mice weight, water and food intake, and feces and urine excreted were monitored daily. 24 h urine samples were collected and kept at −80° C. until further analysis with 50 μL thymol 10% in isopropanol as preservative. Blood was obtained by intracardiac puncture with EDTA coated syringes and transferred into Microvette EDTA-tubes (Sarstedt) and centrifuged at 3000 rpm for 10 min and 4° C. in a minifuge after a 10 min incubation at room temperature. Plasma was then separated into a new tube and kept on ice. Plasma absorbance at 414 nm was then determined to quantify hemolysis with a NanoDrop spectrophotometer and only those with OD<0.2 were considered for the further analysis. Plasma samples were stored at −80° C. and centrifuged erythrocytes (RBCs) were also collected and stored at −80° C.
For L-Erg and S-met-L-Erg analysis in urine, thawed urine samples where centrifuged at 1000×g 5 min and 4° C. to remove any debris. […] The samples where then filtered through eXtremeFV PVDF 0.2 μm filter vials (Thomson Instrument Company), and L-Erg and S-met quantified by UPLC-MS/MS. […]
Mass spectrometry was carried out under positive ion, electrospray ionization mode, using multiple reaction monitoring (MRM) for quantification of specific target ions. […]

[7] = end of 6-month treatment, treated vs non-treated
[8] = 60 mg/L L-Erg in drinking water
[9] = 60 mg/L, before vs after treatment

lithiasis onset ([2]; 16 mg/kg·day, 6 months, independently of sex): delayed lithiasis onset
stone growth (rate) in the L-Erg treated group ([2]; 16 mg/kg·day, 6 months, vs untreated, listed as ergothioneine): lower
effect on mouse weight ([2]; 6-month chronic treatment): no effects
effect on water intake ([2]; 6-month chronic treatment): no effects
effect on urine pH [2, 7]: no differences
reduction in the number of lithiasic (stone-forming) mice ([2]; target dose 16 mg/kg·day in drinking water since weaning, 6 months, vs untreated): 50%
delay of stone formation in relation to non-treated mice ([2]; treated mice that still formed stones): 1 month
increase of L-Erg concentration in urine (cystinuria mouse model; 15 mg/L L-Erg in drinking water): 3.4±0.4 fold
urine pH change (cystinuria mouse model; 15 mg/L L-Erg in drinking water, p=0.052): statistically non-significant increase
water intake normalized by surface, change at the end of the treatment (cystinuria mouse model; 15 mg/L L-Erg in drinking water, p=0.11): statistically non-significant increase
urine pH change (cystinuria mouse model; [8]): statistically significant increase
increase of L-Erg concentration in urine (cystinuria mouse model; [8]): 174.6±38.4 fold
water intake normalized by surface, change at the end of the treatment (cystinuria mouse model; 60 mg/L L-Erg in drinking water, p=0.08): statistically non-significant increase
urine redox status or potential (ORP) change (cystinuria mouse model; 15 and 60 mg/L L-Erg in drinking water): statistically non-significant decrease
effect on cystine stone growth ([5]; 60 mg/L in drinking water, lithiasic mice, treated vs untreated, p=0.61): No effect
effect on growth of multiple stones ([5]; 60 mg/L in drinking water, p=0.41): No statistically significant effect
effect on growth of single stones ([5]; 60 mg/L in drinking water, p=0.78): No statistically significant effect
effect on surface corrected water intake [5, 9]: no differences
effect on urine pH [5, 9]: no differences
effect on urine redox status [5, 9]: no differences
SMILES: C[N+](C)(C)[C@@H](Cc1c[nH]c(=S)[nH]1)C(=O)[O-] (stereo in doubt) [L-Erg, [1-carboxy-2-(2-sulfanylidene-1,3-dihydroimidazol-4-yl)ethyl]-trimethylazanium]
time L-Erg blood and plasma concentrations remain significatively higher after the administration end [1]: 6 weeks
stone growth (rate) in the L-Erg treated group ([2]; 16 mg/kg·day, 6 months, vs untreated): almost statistically significant reduction
effect on urine redox potential [2, 7]: statistically significant more reduced urine
side effects in cystinuric mice ([2]; mouse, in vivo): does not generate any side effect
formation of L-Erg-Cys and L-Erg-L-Erg dimers [3]: Neither L-Erg-Cys, nor L-Erg-L-Erg dimers were detected
Cys intracellular concentration in kidney, increase [4]: 1.6 ×
Cys/CssC ratio in kidney, increase [4]: 6.1 times
GSH intracellular concentration in kidney, increase [4]: 1.4 ×
GSH/GSSG ratio in kidney, increase [4]: 2.1 times
Met intracellular concentration in kidney, increase [4]: 1.7 ×
S-adenosylhomocysteine (SAH) intracellular concentration in kidney, decrease [4]: 1.2 ×
SAM/SAH ratio in kidney, increase [4]: 1.8 times
cystine intracellular concentration in kidney, decrease [4]: 11.1 ×
gamma-Glutamylcysteine intracellular concentration in kidney, increase [4]: 1.7 ×

area under the ROC curve, urine concentration as lithiasic biomarker [6]: over 0.65
SMILES: CSc1ncc(C[C@@H](C(=O)[O-])[N+](C)(C)C)[nH]1 [S-Met-L-Erg, (2-{S})-3-(2-methylsulfanyl-1-{H}-imidazol-5-yl)-2-(trimethylazaniumyl)propanoate]
